Data published in PubChem BioAssay AID977621 (Broad Institute, 2014).
Results filed as inconclusive are left out. Active and inactive are the calls of the source.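 The calls were made as follows: active = Wild-type ribosome reporter drop at least double the humanized mutant ribosome reporter drop, growth loss under a set limit; inconclusive = no clear call, values can overlap the other calls; inactive = the rest.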

Test system: E. coli wild-type GFP strain growth, fluorescence, 24 h
Assay: growth inhibition of wild-type GFP E. coli, dose response, H69 mutant RFP, cherry-pick (AID 977621);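 also: wild-type GFP and H69 mutant RFP strains grown together 50/50 in each well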
[1] = E. coli mixed culture, 24 h, measured here: total growth OD600, test 2

## O=c1c2ccccc2nc(SCc2ccccc2)n1CC1CCCO1 (stereo unspecified)
[1]
  AC50: 51.1 µM

## N#CC1CN(Cc2ccccc2)CN(Cc2ccccc2)C1
  AC50: > 100 µM (inactive)

## Nc1nn(-c2ccccc2)c2ccc([N+](=O)[O-])cc12
  AC50: > 100 µM (inactive)

## O=C(NCCc1ccccn1)c1cccc(S(=O)(=O)N2CCc3ccccc32)c1
  AC50: > 100 µM (inactive)

## CCOCC(=O)Nc1c(C(=O)Nc2ccc3c(c2)OCCO3)oc2ccccc12
  AC50: > 100 µM (inactive)

## Cc1ccc(S(=O)(=O)Nc2cccc(-c3ccc(N4CCCCCC4)nn3)c2)cc1
  AC50: > 100 µM (inactive)
[1]
  AC50: 28.9 µM

## Cc1cc(Cl)ccc1OCCCC(=O)OCC(N)=O
[1]
  AC50: > 100 µM

## O=C(CN1CCN(c2ccc(O)cc2)CC1)Nc1cc(S(=O)(=O)N2CCCC2)ccc1Cl
  AC50: > 100 µM (inactive)

## Cc1nnc2sc(SCC(=O)Nc3ccc(Br)cc3)nn2c1=O
[1]
  AC50: > 100 µM

## COc1cc(C(F)(F)F)c(C(=O)N(C)Cc2ccc(Cl)c(Cl)c2)cn1
  AC50: > 100 µM (inactive)
[1]
  AC50: 44.6 µM

## N#Cc1nc(Cc2ccccc2)oc1N1CCCC1
  AC50: > 100 µM (inactive)

## Cc1cccc(OCc2nnc(SCC(=O)Nc3ncc(C)s3)o2)c1
  AC50: > 100 µM (inactive)
[1]
  AC50: > 100 µM

## CCN(CC)CCN(C(=O)C1CCCCC1)c1nc2cc3c(cc2s1)OCO3
  AC50: > 100 µM (inactive)

## COCC(C)NC(=O)c1nn(Cc2ccccc2)c(=O)c2ccccc12 (stereo unspecified)
[1]
  AC50: 28.2 µM

## Cc1ccc(NS(=O)(=O)c2cc(C(=O)N3CCc4ccccc4C3)ccc2Cl)cc1
[1]
  AC50: 33.3 µM

## CCn1ncc(Br)c1C(=O)Nc1ccc2c(c1)OCCO2
  AC50: > 100 µM (inactive)

## CC(C)(C)c1ccc(S(=O)(=O)NCc2ccc(C(=O)NCc3ccccn3)cc2)cc1
[1]
  AC50: > 100 µM

## CC(=O)N1c2c(cc(Br)cc2S(=O)(=O)N2CCCCC2)CC1C (stereo unspecified)
  AC50: > 100 µM (inactive)

## O=C(CSCc1c(Cl)cccc1Cl)NCc1ccccn1
[1]
  AC50: > 100 µM

## CCN(CC(=O)Nc1ccccc1OC)CC(=O)Nc1c(Cl)ccc(C)c1Cl
  AC50: > 100 µM (inactive)

## CSC1=NCCN1C(=O)Cc1ccc(-c2ccccc2)cc1
  AC50: > 100 µM (inactive)
[1]
  AC50: 48.3 µM

## O=C(COC(=O)c1cccc(S(=O)(=O)N2CCCCC2)c1)NCc1cccc(Cl)c1
  AC50: > 100 µM (inactive)

## C[C@@H]1CN([C@@H](C)CO)C(=O)CCCn2nncc2CO[C@H]1CN(C)C(=O)Nc1ccc(C(F)(F)F)cc1
  AC50: > 100 µM (inactive)

## CCOc1ccc(CCNC(=O)CCc2nc3ccccc3[nH]2)cc1OCC
  AC50: > 100 µM (inactive)
[1]
  AC50: > 100 µM

## O=C(CSc1ccncc1)Nc1ccc2ccccc2c1
  AC50: > 100 µM (inactive)
[1]
  AC50: 30 µM

## Fc1ccc(-c2nnc(-c3ccc4ccccc4c3)o2)cc1
  AC50: > 100 µM (inactive)
[1]
  AC50: > 100 µM

## COc1ccc(C)c2sc(N(CCN(C)C)C(=O)c3ccc(S(=O)(=O)N(C)c4ccccc4)cc3)nc12
  AC50: > 100 µM (inactive)

## CCOC(=O)Cc1csc(SCC(=O)Nc2cc(C)ccc2OC)n1
  AC50: > 100 µM (inactive)
[1]
  AC50: > 100 µM

## COc1cccc(OCCNS(=O)(=O)c2ccccc2[N+](=O)[O-])c1
  AC50: > 100 µM (inactive)

## Clc1ccccc1C1CC(c2ccccc2)=Nc2ccccc2N1 (stereo unspecified)
  AC50: > 100 µM (inactive)

## O=C(NCc1ccco1)c1ccc2ccccc2n1
[1]
  AC50: > 100 µM

## COc1cc(-c2cc3nc(NCCc4ccncc4)ccn3n2)cc(OC)c1OC
  AC50: > 100 µM (inactive)

## O=C(COc1cc(F)ccc1[N+](=O)[O-])NCCCc1ccccc1
[1]
  AC50: > 100 µM

## O=C1c2cccc3cccc(c23)C(=O)N1c1ccccc1Cl
  AC50: > 100 µM (inactive)

## CCc1cccc(NC(=O)CCC(=O)N2CCSc3ccccc32)c1
  AC50: > 100 µM (inactive)
[1]
  AC50: 47.6 µM

## C[C@@H]1CN([C@@H](C)CO)C(=O)CCCn2nncc2CO[C@H]1CN(C)C(=O)Nc1cccc(C(F)(F)F)c1
  AC50: > 100 µM (inactive)

## CSc1nc2ccc(NC(=O)c3c(-c4ccccc4)noc3C)cc2s1
[1]
  AC50: 46.5 µM

## CN(Cc1ccc(Cl)s1)C(=O)CNC(=O)CNC(=O)c1ccc(Cl)cc1Cl
  AC50: > 100 µM (inactive)

## OC[C@H]1[C@H](c2ccc(-c3ccc(F)cc3)cc2)[C@@H]2CN(Cc3ccncc3)CCCCN12
  AC50: > 100 µM (inactive)

## Cc1ccc(C(=O)C2CCN(CC(=O)Nc3nc(C)cs3)CC2)cc1
  AC50: > 100 µM (inactive)
[1]
  AC50: 7.66 µM

## CCN(CC)S(=O)(=O)c1ccc(O)c(C(=O)OCC(=O)NC23CC4CC(CC(C4)C2)C3)c1
  AC50: > 100 µM (inactive)
[1]
  AC50: > 100 µM

## CSc1ccccc1NC(=O)c1ccccc1N(Cc1ccccc1)S(C)(=O)=O
[1]
  AC50: > 100 µM

## N#Cc1cccc(-c2ccc3c(c2)[C@H]2[C@H](CCN2C(=O)c2ccccc2F)[C@H](CO)N3)c1
  AC50: > 100 µM (inactive)

## CCN(c1cccc2ccccc12)S(=O)(=O)c1ccc(Cl)nc1
  AC50: > 100 µM (inactive)

## CCc1cc2ccc(OC)cc2nc1SCC(=O)N1CCN(C(=O)c2ccco2)CC1
[1]
  AC50: 42.2 µM

## O=C(COC(=O)CCC(=O)c1ccc(F)cc1)Nc1cccc(S(=O)(=O)N2CCCC2)c1
[1]
  AC50: > 100 µM

## O=C(Nc1cscc1S(=O)(=O)c1ccccc1)c1ccccc1Cl
  AC50: > 100 µM (inactive)

## COc1ccc(CN(C)C[C@H]2Oc3ccc(NS(=O)(=O)c4ccc(Cl)cc4)cc3CC(=O)N([C@@H](C)CO)C[C@H]2C)cc1
[1]
  AC50: > 100 µM

## Cc1nc(-c2ccc([N+](=O)[O-])cc2)c(-c2ccccc2)o1
  AC50: > 100 µM (inactive)

## COc1cc2[nH]c(=S)nc(NCCc3ccc(C)cc3)c2cc1OC
  AC50: > 100 µM (inactive)

## C=CCn1c(SCc2n[nH]c(=S)n2-c2ccccc2)nnc1-c1ccccc1
  AC50: > 100 µM (inactive)

## CC(NC(=O)c1ccncc1)c1ccc(Cl)cc1Cl (stereo unspecified)
[1]
  AC50: > 100 µM

## Cc1cc(C(=O)Nc2cccc3c2O[C@H](CN(C)S(=O)(=O)c2ccc(Cl)cc2)[C@H](C)CN([C@H](C)CO)C3=O)n(C)n1
  AC50: > 100 µM (inactive)

## NC(=O)c1nsc(C(=O)N(c2ccccc2F)C(C(=O)NCc2ccc(F)cc2)c2ccc(O)cc2)c1N (stereo unspecified)
  AC50: > 100 µM (inactive)
[1]
  AC50: 47 µM

## COc1cccc(OC)c1CNC(=O)CCSCc1ccccc1F
[1]
  AC50: > 100 µM

## Cc1ccc(S(=O)(=O)N2CCCCC2C(=O)N2CCN(c3ccccc3F)CC2)cc1 (stereo unspecified)
[1]
  AC50: > 100 µM

## Cc1ccc(OCc2nc(C#N)c(N3CCCCC3)o2)cc1
  AC50: > 100 µM (inactive)
[1]
  AC50: 42.7 µM

## Cc1ccc(S(=O)(=O)NC(C)C(=O)NCc2ccc(Cl)cc2)cc1 (stereo unspecified)
  AC50: > 100 µM (inactive)
[1]
  AC50: > 100 µM

## O=C(Cc1cccc2ccccc12)Nc1ccccc1C(=O)O
[1]
  AC50: 50.2 µM

## COc1ccc(C2=NN(C(=O)c3cccnc3)C(c3ccccc3)C2)cc1 (stereo unspecified)
[1]
  AC50: 1.05 µM

## CCn1nnc(NC(=O)c2ccc([N+](=O)[O-])o2)n1
  AC50: > 100 µM (inactive)

## Nc1ccc2nc(-c3ccc(Cl)cc3)[nH]c2c1
  AC50: > 100 µM (inactive)

## Cc1onc(-c2ccccc2Cl)c1C(=O)N[C@@H](C)c1ccccc1
  AC50: > 100 µM (inactive)
[1]
  AC50: > 100 µM

## Nc1c(C(=O)NCCN2CCOCC2)c2nc3ccccc3nc2n1Cc1ccccc1
  AC50: > 100 µM (inactive)
Measured here: total growth OD600, test 2
  AC50: > 100 µM

## CC(C)(C)N(Cc1ccccc1)C(=O)CN1C(=O)c2ccccc2S1(=O)=O
  AC50: > 100 µM (inactive)

## CC(C)(C)c1ccc(-c2noc(CCC(=O)NCc3ccco3)n2)cc1
[1]
  AC50: > 100 µM

## Cc1ccsc1C(=O)N1CCCC(C(=O)c2cc(F)ccc2F)C1 (stereo unspecified)
  AC50: > 100 µM (inactive)
[1]
  AC50: > 100 µM

## c1ccc(-n2c(SCc3nc(-c4cccs4)no3)nnc2-c2ccco2)cc1
  AC50: > 100 µM (inactive)
[1]
  AC50: 42.5 µM

## COc1cc(C2CC(=O)Oc3cc(C)cc(C)c32)cc(OC)c1OC (stereo unspecified)
  AC50: > 100 µM (inactive)

## COc1ccc(Cn2c(=O)c3[nH]cnc3n(-c3ccc(C)cc3)c2=O)cc1
  AC50: > 100 µM (inactive)

## C[n+]1ccccc1/C=C/c1cc(Br)ccc1O
  AC50: > 100 µM (inactive)

## COc1ccc(OC)c(S(=O)(=O)Nc2cccc3ccc(O)cc23)c1
[1]
  AC50: > 100 µM

## COc1ccc(OCC(O)CNS(=O)(=O)c2cccc(Cl)c2)cc1 (stereo unspecified)
[1]
  AC50: > 100 µM

## CCCc1nc2cc(C)c(Br)c(C)n2c1CC1CCCCC1
  AC50: > 100 µM (inactive)
[1]
  AC50: 48.9 µM

## N#CCC(=O)Nc1ccc(C(=O)OCC(=O)Nc2ccc3ccccc3c2)cc1
  AC50: > 100 µM (inactive)

## COC(=O)c1ccc(CN2CCCC(CO)(Cc3ccccc3F)C2)cc1 (stereo unspecified)
  AC50: > 100 µM (inactive)

## CCc1nnc(NS(=O)(=O)c2ccc(NC(=O)c3cc(Cl)ccc3[N+](=O)[O-])cc2)s1
[1]
  AC50: 51.9 µM

## CCN(C(=O)COC(=O)c1cc(-c2cccs2)nc2ccccc12)C1CCS(=O)(=O)C1 (stereo unspecified)
  AC50: > 100 µM (inactive)

## O=C(Nc1ccccc1)N1CCCCN2[C@@H](CO)[C@H](c3ccc(Br)cc3)[C@@H]2C1
  AC50: > 100 µM (inactive)

## COc1cccc(-c2ccc(SCc3ccccn3)nn2)c1
  AC50: > 100 µM (inactive)
[1]
  AC50: 48.2 µM

## CCN(CC)S(=O)(=O)c1cc(NS(=O)(=O)c2cccc(Cl)c2Cl)ccc1C
  AC50: > 100 µM (inactive)
[1]
  AC50: 33.4 µM

## C[C@@H]1CN([C@@H](C)CO)C(=O)c2cccc(NC(=O)Nc3ccccc3)c2O[C@@H]1CN(C)S(=O)(=O)c1ccc(Cl)cc1
  AC50: > 100 µM (inactive)
[1]
  AC50: 37.7 µM

## CCOC(=O)c1sc2nc(NC(=O)C(C)(C)C)sc2c1C
  AC50: > 100 µM (inactive)
[1]
  AC50: 38.9 µM

## C[C@H](CO)N1C[C@H](C)[C@H](CN(C)C(=O)Nc2ccc3c(c2)OCO3)Oc2c(NC(=O)Nc3ccccc3)cccc2C1=O
[1]
  AC50: 48.4 µM

## CCC(=O)N(CCC(c1ccco1)C(C)C)Cc1ccccc1 (stereo unspecified)
  AC50: > 100 µM (inactive)

## CCN(CC)C(=O)c1ccc(COc2ccccc2Cl)o1
[1]
  AC50: > 100 µM

## Cc1cnc(NC(=O)Cc2c[nH]c3ccccc23)s1
  AC50: > 100 µM (inactive)

## CN1C(=O)c2ccccc2OC1(C)Cc1ccccc1 (stereo unspecified)
  AC50: > 100 µM (inactive)
[1]
  AC50: 41.6 µM

## Cc1cc(C(=O)OCC(=O)Nc2cccc(S(N)(=O)=O)c2)c2ccccc2n1
[1]
  AC50: > 100 µM

## CCOc1ccc(NC(=O)CN2C(=O)COc3ccc(S(=O)(=O)N4CCCC4)cc32)cc1
  AC50: > 100 µM (inactive)

## COc1ccc(-n2c(-c3ccc(C)cc3)nc3ccccc3c2=O)cc1
  AC50: > 100 µM (inactive)

## CCN(CC)CCN(C(=O)c1ccc2c(c1)CCCC2)c1nc2ccc(F)cc2s1
[1]
  AC50: 32.5 µM
